Assay results reported in ChEMBL document CHEMBL5465560, “Selectivity Literature for EUbOPEN Chemogenomic Library” (2024).

Legend:
[1] = molecular target: Serine/threonine-protein kinase mTOR (Homo sapiens, UniProt P42345); experiment: Selectivity interaction (KinomeScan (DiscoverX)) EUB0001079a MTOR; details: at 1 µM
[2] = molecular target: T1, Rhodopsin kinase GRK7 (Homo sapiens) (UniProt Q8WTQ7); experiment: Selectivity interaction (Kinase panel (Z-LYTE Assay)) EUB0001632a GRK7; details: at 10 µM
T1 sequence (whole entry): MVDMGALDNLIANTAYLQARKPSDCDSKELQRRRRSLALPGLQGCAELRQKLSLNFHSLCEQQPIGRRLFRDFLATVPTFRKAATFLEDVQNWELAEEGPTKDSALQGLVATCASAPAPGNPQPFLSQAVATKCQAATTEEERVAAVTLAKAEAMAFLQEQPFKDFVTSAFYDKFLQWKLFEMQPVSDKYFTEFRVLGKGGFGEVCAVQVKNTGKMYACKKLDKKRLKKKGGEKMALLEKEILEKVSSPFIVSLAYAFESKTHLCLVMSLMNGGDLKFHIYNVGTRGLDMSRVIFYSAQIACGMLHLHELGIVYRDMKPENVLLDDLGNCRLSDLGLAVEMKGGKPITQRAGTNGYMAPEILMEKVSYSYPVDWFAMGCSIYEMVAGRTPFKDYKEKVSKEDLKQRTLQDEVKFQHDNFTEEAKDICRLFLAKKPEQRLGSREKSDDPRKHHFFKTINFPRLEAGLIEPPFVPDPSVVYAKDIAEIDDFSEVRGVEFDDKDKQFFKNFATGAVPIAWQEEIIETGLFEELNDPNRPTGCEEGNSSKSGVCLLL

[3] = molecular target: Serine/threonine-protein kinase Nek4 (Homo sapiens) (UniProt P51957); experiment: Selectivity interaction (Kinase panel (Z-LYTE Assay)) EUB0001632a NEK4; details: at 10 µM
[4] = molecular target: Receptor tyrosine-protein kinase erbB-4 (Homo sapiens, UniProt Q15303); experiment: Selectivity interaction (KinomeScan (DiscoverX)) EUB0000666a ERBB4; details: at 10 µM
[5] = molecular target: Dual specificity protein kinase CLK3 (Homo sapiens, UniProt P49761)
[6] = molecular target: T2, Alpha-1A adrenergic receptor (Homo sapiens) (UniProt P35348); experiment: Selectivity interaction (Eurofins CEREP Diversity Profile (receptors and ion channels)) EUB0000279b ADRA1A; details: at 10 µM
T2 sequence (whole entry): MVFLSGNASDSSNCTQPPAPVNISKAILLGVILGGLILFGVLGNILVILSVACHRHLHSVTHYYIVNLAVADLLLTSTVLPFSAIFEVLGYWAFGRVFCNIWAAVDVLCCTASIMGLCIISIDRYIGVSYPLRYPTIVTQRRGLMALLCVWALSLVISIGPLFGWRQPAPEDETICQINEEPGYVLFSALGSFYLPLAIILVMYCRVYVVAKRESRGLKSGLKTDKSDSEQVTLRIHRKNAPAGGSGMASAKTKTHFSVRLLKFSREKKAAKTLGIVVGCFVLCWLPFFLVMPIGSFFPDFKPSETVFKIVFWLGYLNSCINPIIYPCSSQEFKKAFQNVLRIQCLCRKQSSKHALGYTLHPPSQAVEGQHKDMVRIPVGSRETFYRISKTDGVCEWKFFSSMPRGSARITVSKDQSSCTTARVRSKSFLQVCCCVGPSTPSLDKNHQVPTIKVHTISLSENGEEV

[7] = molecular target: Tyrosine-protein kinase SYK (Homo sapiens, UniProt P43405); experiment: Selectivity interaction (KinomeScan (DiscoverX)) EUB0001049a SYK; details: at 1 µM
[8] = molecular target: Tyrosine-protein kinase CSK (Homo sapiens) (UniProt P41240); experiment: Selectivity interaction (ActivX KiNativ screen (ex vivo kinase selectivity in human PBMCs)) EUB0001619a CSK; assay type: cell-based; details: PBMC, at 1 µM
[9] = molecular target: Ribosomal protein S6 kinase alpha-3 (Homo sapiens, UniProt P51812); experiment: Selectivity interaction (ActivX KiNativ screen (ex vivo kinase selectivity in human PBMCs)) EUB0001619a RPS6KA3; assay type: cell-based; details: PBMC, at 1 µM
[10] = molecular target: Myosin light chain kinase, smooth muscle (Homo sapiens, UniProt Q15746); experiment: Selectivity interaction (Kinase panel (literature)) EUB0001199aCl MYLK; details: at 1 µM
[11] = molecular target: Serine/threonine-protein kinase MARK2 (Homo sapiens) (UniProt Q7KZI7); experiment: Selectivity interaction (ActivX KiNativ screen (kinase selectivity in THP-1 cell lysates)) EUB0000639a MARK2; assay type: subcellular; details: lysate, at 0.04 µM
[12] = molecular target: T3, Serine/threonine-protein kinase 3 (Homo sapiens) (UniProt Q13188); experiment: Selectivity interaction (ActivX KiNativ screen (kinase selectivity in THP-1 cell lysates)) EUB0000639a STK3; assay type: subcellular; details: lysate, at 0.01 µM
T3 sequence (whole entry): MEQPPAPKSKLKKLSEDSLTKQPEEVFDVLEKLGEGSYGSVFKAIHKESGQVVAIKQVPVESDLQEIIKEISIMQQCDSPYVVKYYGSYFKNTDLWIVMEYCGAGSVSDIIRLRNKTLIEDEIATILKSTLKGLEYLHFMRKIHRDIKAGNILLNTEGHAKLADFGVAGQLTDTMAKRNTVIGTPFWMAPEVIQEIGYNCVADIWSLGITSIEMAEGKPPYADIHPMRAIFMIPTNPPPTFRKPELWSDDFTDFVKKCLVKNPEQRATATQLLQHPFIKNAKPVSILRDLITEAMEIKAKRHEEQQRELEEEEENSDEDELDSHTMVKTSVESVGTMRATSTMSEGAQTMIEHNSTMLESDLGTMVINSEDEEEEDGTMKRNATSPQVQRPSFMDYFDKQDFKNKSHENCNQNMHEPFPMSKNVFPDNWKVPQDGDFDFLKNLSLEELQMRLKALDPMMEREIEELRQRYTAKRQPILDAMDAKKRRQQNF

[13] = molecular target: Tyrosine-protein kinase ABL1 (Homo sapiens, UniProt P00519); experiment: Selectivity interaction (Kinase panel (Invitrogen)) EUB0000639a ABL1; details: at 200 nM
[14] = molecular target: Ribosomal protein S6 kinase alpha-2 (Homo sapiens) (UniProt Q15349); experiment: Selectivity interaction (ActivX KiNativ screen (kinase selectivity in THP-1 cell lysates)) EUB0000639a RPS6KA2; assay type: subcellular; details: lysate, at 0.2 µM
[15] = molecular target: 5'-AMP-activated protein kinase catalytic subunit alpha-1 (Homo sapiens, UniProt Q13131); experiment: Selectivity interaction (ActivX KiNativ screen (kinase selectivity in THP-1 cell lysates)) EUB0000639a PRKAA1; assay type: subcellular; details: lysate, at 0.01 µM
[16] = molecular target: Calcium/calmodulin-dependent protein kinase type II subunit gamma (Homo sapiens) (UniProt Q13555); experiment: Selectivity interaction (ActivX KiNativ screen (kinase selectivity in THP-1 cell lysates)) EUB0000639a CAMK2G; assay type: subcellular; details: lysate
Sequence of Calcium/calmodulin-dependent protein kinase type II subunit gamma (Homo sapiens) (Q13555 whole entry): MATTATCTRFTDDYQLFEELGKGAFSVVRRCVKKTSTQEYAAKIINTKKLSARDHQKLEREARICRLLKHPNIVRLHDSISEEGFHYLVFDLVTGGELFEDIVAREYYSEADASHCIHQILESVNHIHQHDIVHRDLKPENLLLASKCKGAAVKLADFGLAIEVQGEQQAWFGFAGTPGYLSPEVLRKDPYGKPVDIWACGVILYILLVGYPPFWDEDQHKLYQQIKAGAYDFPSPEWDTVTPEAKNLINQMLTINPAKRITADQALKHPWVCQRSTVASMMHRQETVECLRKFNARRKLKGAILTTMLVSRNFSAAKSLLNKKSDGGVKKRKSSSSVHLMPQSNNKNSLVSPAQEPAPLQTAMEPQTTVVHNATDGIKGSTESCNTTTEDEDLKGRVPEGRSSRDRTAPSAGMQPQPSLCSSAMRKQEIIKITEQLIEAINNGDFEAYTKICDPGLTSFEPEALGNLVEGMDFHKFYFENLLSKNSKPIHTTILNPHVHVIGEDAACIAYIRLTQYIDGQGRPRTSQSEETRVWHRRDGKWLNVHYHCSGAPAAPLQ

Sequence of Tyrosine-protein kinase ABL1 (P00519 whole entry): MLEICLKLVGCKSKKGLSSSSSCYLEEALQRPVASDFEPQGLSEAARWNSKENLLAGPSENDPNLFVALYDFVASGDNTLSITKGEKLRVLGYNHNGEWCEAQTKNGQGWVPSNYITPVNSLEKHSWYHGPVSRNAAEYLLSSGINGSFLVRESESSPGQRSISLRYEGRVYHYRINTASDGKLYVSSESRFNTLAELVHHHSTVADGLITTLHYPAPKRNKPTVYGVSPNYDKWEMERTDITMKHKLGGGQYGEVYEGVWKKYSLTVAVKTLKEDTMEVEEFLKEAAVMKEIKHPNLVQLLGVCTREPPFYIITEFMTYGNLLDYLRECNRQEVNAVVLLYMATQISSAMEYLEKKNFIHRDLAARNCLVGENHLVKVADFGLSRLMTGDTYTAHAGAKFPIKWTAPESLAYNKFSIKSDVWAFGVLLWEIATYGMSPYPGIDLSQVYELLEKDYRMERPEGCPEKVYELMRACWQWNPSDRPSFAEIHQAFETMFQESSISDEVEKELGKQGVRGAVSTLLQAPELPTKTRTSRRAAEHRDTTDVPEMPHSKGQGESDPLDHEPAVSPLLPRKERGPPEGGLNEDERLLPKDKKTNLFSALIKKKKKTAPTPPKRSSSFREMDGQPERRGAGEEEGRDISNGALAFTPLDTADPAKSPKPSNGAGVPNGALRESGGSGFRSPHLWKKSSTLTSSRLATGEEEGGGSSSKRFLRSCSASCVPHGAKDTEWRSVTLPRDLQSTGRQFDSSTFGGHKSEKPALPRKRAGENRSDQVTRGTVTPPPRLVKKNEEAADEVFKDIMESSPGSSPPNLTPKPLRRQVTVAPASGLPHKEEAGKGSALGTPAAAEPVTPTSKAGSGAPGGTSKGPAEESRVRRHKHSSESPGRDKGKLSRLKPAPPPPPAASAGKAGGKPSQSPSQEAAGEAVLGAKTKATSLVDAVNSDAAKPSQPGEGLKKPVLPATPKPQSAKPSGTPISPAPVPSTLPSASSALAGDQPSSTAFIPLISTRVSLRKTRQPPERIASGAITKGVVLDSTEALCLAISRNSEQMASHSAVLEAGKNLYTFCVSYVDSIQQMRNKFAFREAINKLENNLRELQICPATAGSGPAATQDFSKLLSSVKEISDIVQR
Sequence of Myosin light chain kinase, smooth muscle (Q15746 whole entry): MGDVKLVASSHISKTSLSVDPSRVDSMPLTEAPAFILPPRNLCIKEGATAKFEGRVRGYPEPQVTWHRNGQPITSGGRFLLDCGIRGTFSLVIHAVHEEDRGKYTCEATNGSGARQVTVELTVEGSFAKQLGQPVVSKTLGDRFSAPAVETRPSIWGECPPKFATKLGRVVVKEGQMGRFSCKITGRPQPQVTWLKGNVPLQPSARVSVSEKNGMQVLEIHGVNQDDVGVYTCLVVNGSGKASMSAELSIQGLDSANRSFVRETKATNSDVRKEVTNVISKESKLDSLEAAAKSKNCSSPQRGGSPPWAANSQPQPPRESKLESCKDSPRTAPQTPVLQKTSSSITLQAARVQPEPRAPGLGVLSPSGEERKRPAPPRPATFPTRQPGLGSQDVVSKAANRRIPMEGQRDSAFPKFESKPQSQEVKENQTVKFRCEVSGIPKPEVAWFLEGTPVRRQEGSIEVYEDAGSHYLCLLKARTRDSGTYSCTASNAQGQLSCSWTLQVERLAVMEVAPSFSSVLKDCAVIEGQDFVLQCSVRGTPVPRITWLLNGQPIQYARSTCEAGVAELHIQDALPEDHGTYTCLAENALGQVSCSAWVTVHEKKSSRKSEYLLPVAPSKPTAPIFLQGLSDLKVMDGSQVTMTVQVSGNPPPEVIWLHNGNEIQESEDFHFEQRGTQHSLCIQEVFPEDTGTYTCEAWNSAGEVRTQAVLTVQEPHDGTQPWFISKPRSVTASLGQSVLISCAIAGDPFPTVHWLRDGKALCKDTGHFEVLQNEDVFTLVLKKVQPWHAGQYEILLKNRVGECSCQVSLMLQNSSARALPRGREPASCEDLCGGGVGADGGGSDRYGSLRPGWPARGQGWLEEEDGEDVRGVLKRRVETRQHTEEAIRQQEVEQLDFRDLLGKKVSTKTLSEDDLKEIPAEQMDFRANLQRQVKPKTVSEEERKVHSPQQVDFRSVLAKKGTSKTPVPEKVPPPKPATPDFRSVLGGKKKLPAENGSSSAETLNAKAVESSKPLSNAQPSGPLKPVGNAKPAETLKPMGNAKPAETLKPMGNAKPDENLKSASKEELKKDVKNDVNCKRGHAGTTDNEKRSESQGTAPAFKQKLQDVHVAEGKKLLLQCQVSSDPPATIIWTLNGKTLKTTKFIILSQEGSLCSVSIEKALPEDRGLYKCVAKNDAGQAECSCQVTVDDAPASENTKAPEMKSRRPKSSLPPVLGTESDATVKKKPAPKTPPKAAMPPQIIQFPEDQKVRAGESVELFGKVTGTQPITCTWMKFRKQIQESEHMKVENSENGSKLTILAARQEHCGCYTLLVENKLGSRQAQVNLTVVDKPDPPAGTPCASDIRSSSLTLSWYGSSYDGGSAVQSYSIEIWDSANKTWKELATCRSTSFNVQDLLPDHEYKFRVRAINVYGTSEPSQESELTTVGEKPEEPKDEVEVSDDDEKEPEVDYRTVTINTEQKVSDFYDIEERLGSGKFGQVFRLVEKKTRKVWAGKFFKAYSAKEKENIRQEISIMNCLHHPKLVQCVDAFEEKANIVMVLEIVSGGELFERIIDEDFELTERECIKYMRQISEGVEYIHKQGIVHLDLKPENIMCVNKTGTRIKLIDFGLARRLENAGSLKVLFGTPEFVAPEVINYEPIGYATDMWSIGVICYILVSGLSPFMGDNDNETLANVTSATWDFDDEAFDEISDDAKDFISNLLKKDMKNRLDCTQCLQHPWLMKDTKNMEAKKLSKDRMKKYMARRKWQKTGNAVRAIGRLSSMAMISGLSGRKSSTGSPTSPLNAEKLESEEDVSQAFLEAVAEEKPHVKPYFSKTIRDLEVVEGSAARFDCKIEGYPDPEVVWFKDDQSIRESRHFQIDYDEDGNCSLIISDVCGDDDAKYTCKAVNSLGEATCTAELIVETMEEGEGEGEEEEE
Sequence of 5'-AMP-activated protein kinase catalytic subunit alpha-1 (Q13131 whole entry, looked up): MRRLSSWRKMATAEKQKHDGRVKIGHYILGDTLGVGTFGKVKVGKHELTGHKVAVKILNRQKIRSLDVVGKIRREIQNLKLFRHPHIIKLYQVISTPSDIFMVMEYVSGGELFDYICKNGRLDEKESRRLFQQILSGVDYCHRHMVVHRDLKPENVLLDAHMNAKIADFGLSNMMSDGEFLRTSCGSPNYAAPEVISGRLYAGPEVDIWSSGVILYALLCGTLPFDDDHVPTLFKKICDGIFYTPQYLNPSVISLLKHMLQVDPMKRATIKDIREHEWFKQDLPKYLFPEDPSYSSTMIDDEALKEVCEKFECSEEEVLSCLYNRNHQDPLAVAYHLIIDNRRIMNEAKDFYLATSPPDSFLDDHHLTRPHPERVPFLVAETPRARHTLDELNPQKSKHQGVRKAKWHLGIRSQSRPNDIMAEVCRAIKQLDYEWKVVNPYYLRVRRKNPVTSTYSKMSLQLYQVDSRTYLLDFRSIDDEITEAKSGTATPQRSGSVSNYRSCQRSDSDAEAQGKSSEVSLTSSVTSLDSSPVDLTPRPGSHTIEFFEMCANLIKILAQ
Sequence of Serine/threonine-protein kinase Nek4 (Homo sapiens) (P51957 whole entry, looked up): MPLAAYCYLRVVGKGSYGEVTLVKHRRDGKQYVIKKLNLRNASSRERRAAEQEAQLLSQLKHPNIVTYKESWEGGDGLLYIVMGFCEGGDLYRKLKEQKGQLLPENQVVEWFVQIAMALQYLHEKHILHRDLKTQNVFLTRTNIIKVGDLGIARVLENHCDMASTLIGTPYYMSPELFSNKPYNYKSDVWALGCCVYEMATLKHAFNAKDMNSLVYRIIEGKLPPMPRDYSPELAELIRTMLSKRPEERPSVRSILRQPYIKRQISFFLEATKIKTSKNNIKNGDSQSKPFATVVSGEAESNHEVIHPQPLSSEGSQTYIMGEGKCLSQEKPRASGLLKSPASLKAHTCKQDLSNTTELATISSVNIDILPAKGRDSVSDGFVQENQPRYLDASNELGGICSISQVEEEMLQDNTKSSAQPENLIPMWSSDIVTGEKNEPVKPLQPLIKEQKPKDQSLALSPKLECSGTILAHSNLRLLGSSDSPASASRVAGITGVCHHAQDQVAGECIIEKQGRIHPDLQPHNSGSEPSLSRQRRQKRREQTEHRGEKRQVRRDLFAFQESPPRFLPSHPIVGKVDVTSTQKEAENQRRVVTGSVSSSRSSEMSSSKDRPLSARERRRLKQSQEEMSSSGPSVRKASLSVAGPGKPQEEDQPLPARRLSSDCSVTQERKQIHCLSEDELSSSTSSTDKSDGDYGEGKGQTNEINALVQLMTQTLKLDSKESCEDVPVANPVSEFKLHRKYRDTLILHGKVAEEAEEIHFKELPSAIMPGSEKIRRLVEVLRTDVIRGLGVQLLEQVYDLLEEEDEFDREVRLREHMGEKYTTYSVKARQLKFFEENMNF

Structure (SMILES): Nc1cnc(N2CCc3cc(S(=O)(=O)Nc4c(F)cc(Cl)cc4F)cc(N4CCCC4=O)c32)nc1 [TP-020n]
- % of control [1]: 100%

Structure (SMILES): Cn1cc(-n2cnc3c(NCc4nc5cc(Cl)c(Cl)cc5[nH]4)nc(N4CCOCC4)nc32)cn1
- % of control [2]: -0.279%
- % of control [3]: 0.309%

Structure (SMILES): O=C(NOC[C@H](O)CO)c1ccc(F)c(F)c1Nc1ccc(I)cc1F
- % of control [4]: 100%

Structure (SMILES): Cc1cnc(Nc2ccc(F)cc2Cl)nc1-c1c[nH]c(C(=O)N[C@H](CO)c2cccc(Cl)c2)c1
- % of inhibition [5]: 9%

Structure (SMILES): CC(=O)c1cc(-c2ccccc2OCC2CC2)c2ncccn12
- % of control [6]: 94%

Structure (SMILES): COc1cc(Nc2nc(C)cc(-c3cnn4nc(OC)ccc34)n2)cc(C(F)(F)F)c1
- % of control [7]: 100%

Structure (SMILES): N#Cc1cccc(-c2c[nH]c3ncnc(N4CCOCC4)c23)c1
- % of inhibition [8]: -45%
- % of inhibition [9]: 13%

Structure (SMILES): CN1Cc2nccc(-c3cn(C)nc3-c3ccc(F)cc3)c2C1=O
- % of inhibition [10]: 4%

Structure (SMILES): CC[C@@H]1[C@H](F)C(=O)N[C@@H]1COc1nccc2cc(C(N)=O)c(OC)cc12 [ZIMLOVISERTIB]
- % of inhibition [11]: -13.3%
- % of inhibition [12]: -19.5%
- % of inhibition [13]: 2.34%
- % of inhibition [14]: 2.6%
- % of inhibition [15]: 7.8%
- % of inhibition ([16]; at 0.01 µM): -1%
- % of inhibition ([16]; at 0.04 µM): 3.3%
- % of inhibition ([16]; at 0.2 µM): 10%
- % of inhibition ([16]; at 1 µM): 35.2%
- % of inhibition ([16]; at 5 µM): 63%
